Experiment: Henry solubility constant Hcp at 310 K (mol/(m3 Pa))
Settings: reference: Kaneko et al. (1994)

Compared with CCC(C)CO (centres undefined) [2-methyl-1-butanol], CC(C)CO [2-methyl-1-propanol] is higher in “Henry solubility constant Hcp at 310 K” value: 0.33 for the first, 0.44 for the second.

First: CCCOC(C)=O [propyl ethanoate]
Second: CCCCOC(C)=O [butyl ethanoate]
The “Henry solubility constant Hcp at 310 K” value of the first is higher: 0.021 for the first, 0.013 for the second.

Going from COC(C)=O [methyl ethanoate] to CCOC(C)=O [ethyl ethanoate], the “Henry solubility constant Hcp at 310 K” value falls from 0.042 to 0.028.

First: CCO [ethanol]
Second: CCCO [1-propanol]
The “Henry solubility constant Hcp at 310 K” value of the first is higher: 0.83 for the first, 0.72 for the second.

Compared with CC(=O)OCC(C)C [2-methylpropyl ethanoate], CC(=O)OCCC(C)C [3-methylbutyl ethanoate] is lower in “Henry solubility constant Hcp at 310 K” value: 0.01 for the first, 0.0088 for the second.

Compared with CC(=O)OC(C)C [2-propyl ethanoate], CC(C)O [2-propanol] is higher in “Henry solubility constant Hcp at 310 K” value: 0.013 for the first, 0.58 for the second.

Compared with CCCCCOC(C)=O [pentyl ethanoate], CCCCCO [1-pentanol] is higher in “Henry solubility constant Hcp at 310 K” value: 0.0093 for the first, 0.42 for the second.
